Test [1] deals with P. falciparum-induced apoptosis of human lung endothelial cells (HLEC). In words: APOPercentage quantitative apoptosis assay, pRBC/HLEC co-incubation. The conditions noted are these: 24 hours pRBC exposure, purple dye pixel number (FIG. 4). Format: cell-based. The method, then:
Endothelial apoptosis was quantitatively assessed using APOPercentage™ dye purchased from Biocolor Ltd. (Belfast, Northern Ireland). The assay uses a purple-red colour dye that is selectively incorporated into apoptotic but not necrotic cells. Unilateral uptake of the dye occurs through phosphatidylserines of the outer membrane of cells that undergo apoptosis. Endothelial cells were cultured in 6-well plates until confluence before exposure to P. falciparum infected erythrocytes during 24 hours. HLEC were incubated for 1 hour with the Apopercentage dye (1/20) before co-incubation time is reached and delicately washed 3 times with PBS. Apoptosis was then quantified by Analytical Digital Photomicroscopy (ADP): for each experiment 4 representative fields of each well of cell cultures were photographed using inverted phase contrast microscope coupled with a digital camera. Images were then transferred to a computer and the level of apoptosis was expressed as a red pixel number counted by Adobe® Photoshop®.
Briefly, APOPercentage™ was used as a mean to quantify induced apoptosis and the effect of Fasudil on cell survival during pRBC/HLEC co-incubations by quantitatively assessing the […] of purple red dye by apoptotic HLEC using Analytical Digital Photomicroscopy (ADP). […]

The subject of test [2] is NF-kappaB nuclear translocation in HLEC. Put plainly: NF-kappaB P65 nuclear translocation (endothelial activation) in pRBC-exposed HLEC. Format: cell-based, human. The conditions noted are these: Fasudil 30 μM added concomitantly with pRBC, 6 hours, P<0.005 (FIG. 8). The method, then: Briefly, HLEC were cultured in 8-chambers Labtek plates and exposed to pRBC during 6 hours at 1% of hematocrit and 50% of parasitemia. Rho-kinase inhibitor Fasudil was added concomitantly with pRBC at 30 μM. TNFβ at 20 ng/ml was used as a positive control of NF-kappaB nuclear translocation. Cells were then fixed and permeabilized for immunostaining with primary anti-NF-kappaB P65 subunit antibody and secondary FITC-anti-mouse IgG antibody. Nuclei were stained with diamidino-phenylindole (DAPI). After immunostaining of NF-kappaB P65 subunit, results were analysed by fluorescence microscopy and the number of activated HLEC (cells with complete but not partial migration nuclear P65 staining) per each condition (n=4) was counted (FIG. 8).

Another test deals with RhoA/Rho-kinase pathway. Put plainly: G-LISA RhoA/Rho-kinase pathway activation assay in HLEC co-incubated with P. falciparum pRBC. Format: cell-based, human. The conditions noted are these: Fasudil 30 μM, 24 hours pRBC-contact co-incubation with HLEC, compared to pRBC alone, p<0.05 (FIG. 2). The method, then: Activity of RhoA and its downstream effector Rho-kinase was assessed using G-LISA™ RhoA Activation Assay Biochem Kit purchased from Cytoskeleton (Denver, Colo.). The principle of the assay is to determine the amount of active GTP-bound RhoA extracted from cultured cells with a Rho-GTP-binding protein coated 96-well plate and final detection with immunoreagents. Briefly, HLEC were cultured in 6-well plates until 50-70% confluence as recommended by the manufacturer and exposed to P. falciparum infected erythrocytes or non infected erythrocytes at 1% of hematocrit and 50% of parasitemia. When used, Fasudil was added concomitantly with parasites at 30 μM. After 24 hours of incubation cells were washed and ice-cold lysed in phosphate buffer saline containing protease inhibitors. Cell lysates were then clarified by centrifugation at 4° C. 10,000 rpm for 2 min before measurement of protein concentrations. Cell extracts were equalized with lysis buffer to give identical protein concentrations before incubation in Rho-GTP affinity plate for 30 min at 4° C. […]
Briefly, RhoA activity in HLEC co-incubated during 24 hours with P. falciparum infected red blood cells (pRBC) or non infected red blood cells (RBC) was measured using the G-LISA™ RhoA activation kit (Cytoskeleton, Denver Colo.) as described in the Materials and Methods section.

Test [3] has as its system P. falciparum induced endothelial permeability of HLEC monolayer. Put plainly: Endothelial barrier integrity assay (Evans Blue diffusion through HLEC monolayer). Format: cell-based, human. The method, then: In order to measure the effect of treatments on pre-exposed pRBCs endothelial cells, we developed a method based on Evans Blue diffusion through endothelial monolayer. Briefly HLEC were raised on Transwell Permeable supports (polyester membrane, 3 μm pore size, 6.5 mm diameter, Corning Incorporated Life Sciences) until confluence in M199 medium. Mature forms of 3D7 P. falciparum clone were then harvested from culture and adjusted at 1% of hematocrit and 50% of parasitemia before 4 hours co-incubation at 37° C. 5% CO2. After PRBC exposure, endothelial cell monolayers were treated 20 hours with Fasudil (1 μM or 30 μM). […] Lower compartments were finally collected for optical density analysis at 630 nm of diffused Evans Blue, using a standard microtiter plate reader (Bio-Tek™ EL311SX, Instruments Inc).
Briefly, P. falciparum cytoadherence effect on endothelial barrier function was assessed by culturing HLEC in Transwell inserts until confluence before exposing them 4 hours to mature forms of pRBC as above. The quantity of Evans Blue collected in lower compartments was markedly higher in pRBC/HLEC co-incubation conditions than in control RBC/HLEC (p<0.01) or non-exposed endothelial cell conditions (p<0.01). […]
Briefly, HLEC were cultured in Transwell inserts until confluence. […] Endothelial barrier integrity was assessed as described above.

Peptide text beside a SMILES is read from it. * marks the point of attachment. Cbz = O=C(OCc1ccccc1)*; CH2F = FC*

In the case of `O=S(=O)(c1cccc2cnccc12)N1CCCNCC1` [Fasudil], the results for the “decrease in apoptosis of pRBC-exposed HLEC compared to non treated cells” value in test [1] (1 μM Fasudil) and in test [1] (30 μM) were 1.4 fold and 4.1 fold, respectively. In test [2], the “P. falciparum-induced endothelial activation (% cells with nuclear NF-kappaB P65)” value is “significantly reduces”. The “activated RhoA concentration ([Rho-GTP], OD 490 nm)” value in the test with RhoA/Rho-kinase pathway is “significant decrease”. For the same compound, the “quantity of Evans Blue marker in lower compartment (OD 630 nm)” value in test [3] (HLEC exposed 4 hours to pRBC, then 30 μM Fasudil for 20 hours, vs HLEC and pRBC, p<0.01 (FIG. 6)) is “significantly lower”.
With `COC(=O)C[C@H](NC(=O)[C@H](C)NC(=O)[C@@H](NC(=O)OCc1ccccc1)C(C)C)C(=O)CF` [z-vad, Z-VAD-fmk] (Cbz-Val-Ala-Asp(OMe)-CH2F), the “quantity of Evans Blue in the lower compartment (OD 630 nm)” value in test [3] (pRBC/HLEC co-incubation in the presence of z-vad 10 μM or 100 μM (FIG. 5)) is “significantly reduced”.

(Values after patent US20090203678A1, “PHARMACEUTICAL COMPOSITIONS FOR THE TREATMENT OF PROTOZOAN PARASITIC DISEASES” (priority 2006, published 2009).)
